Calls of active or inactive are those of the source. No cut-off for these calls is given here.
Tests used:
Alcaligenes faecalis = experiment: Antibacterial activity against Alcaligenes faecalis ATCC 8750 assessed as complete inhibition of bacterial growth measured upto 24 hrs by broth dilution assay; type: functional; details: ATCC 8750, 24 h
Listeria seeligeri = experiment: Antibacterial activity against Listeria seeligeri ATCC 35967 assessed as complete inhibition of bacterial growth measured upto 24 hrs by broth dilution assay; type: functional; details: ATCC 35967, 24 h
Bacillus thuringiensis = experiment: Antibacterial activity against Bacillus thuringiensis HD73 assessed as complete inhibition of bacterial growth measured upto 24 hrs by broth dilution assay; type: functional; details: HD73, 24 h
Escherichia coli [1] = experiment: Antibacterial activity against Escherichia coli DH5[alpha] assessed as complete inhibition of bacterial growth measured upto 24 hrs by broth dilution assay; type: functional
[2] = Induction of chloride efflux in egg yolk phosphatidylcholine large unilamellar vesicles assessed as increase of lucigenin's fluorescence relative to EYPC; type: physicochemical
[3] = Hemolysis in human erythrocytes at 3 to 4 uM after 24 hrs; type: ADME, cell-based, Erythrocyte; details: read-out: Activity
Escherichia coli [4] = experiment: Antibacterial activity against Escherichia coli DH5[alpha] at 50 uM measured upto 24 hrs by broth dilution assay; type: functional, organism-based
HEK-293T = experiment: Cytotoxicity against human HEK293T cells after 24 hrs by MTT assay; type: cell-based
Escherichia coli [5] = experiment: Antibacterial activity against Escherichia coli SK037 with Tn10 insertion inactivated TolC at 50 uM measured upto 24 hrs by broth dilution assay; type: functional, organism-based
Escherichia coli [6] = experiment: Antibacterial activity against Escherichia coli SK037 with Tn10 insertion inactivated TolC at 10 uM measured upto 24 hrs by broth dilution assay; type: functional, organism-based
Escherichia coli [7] = experiment: Antibacterial activity against Escherichia coli DH5[alpha] at 10 uM measured upto 24 hrs by broth dilution assay; type: functional, organism-based
Escherichia coli [8] = experiment: Antibacterial activity against Escherichia coli SK037 with Tn10 insertion inactivated TolC measured at 5 to 10 fold lower MIC within 2 hrs by broth dilution assay; type: functional, organism-based
[9] = Induction of chloride efflux in egg yolk phosphatidylcholine large unilamellar vesicles assessed as increase of lucigenin's fluorescence at 6.25 %mol relative to EYPC; type: physicochemical
[10] = Hemolysis in human erythrocytes upto 100 uM after 1 hr; type: ADME, cell-based, Erythrocyte; details: read-out: Activity

With `CCCCCCCCCCCCCCCC[n+]1ccn(Cc2cc3ccccc3c(-c3c(O)c(Cn4cc[n+](CCCCCCCCCCCCCCCC)c4)cc4ccccc34)c2O)c1.O=S(=O)([N-]S(=O)(=O)C(F)(F)F)C(F)(F)F.O=S(=O)([N-]S(=O)(=O)C(F)(F)F)C(F)(F)F` the MIC (Alcaligenes faecalis) was greater than 100 µM, the MIC (Listeria seeligeri) was greater than 100 µM and the MIC (Bacillus thuringiensis) was greater than 100 µM. The MIC (Escherichia coli [1]) was greater than 100 µM and the EC50 [2] was 18.1 %molar.

In the case of `C[n+]1ccn(Cc2cc3ccccc3c(-c3c(O)c(Cn4cc[n+](C)c4)cc4ccccc34)c2O)c1.O=S(=O)([N-]S(=O)(=O)C(F)(F)F)C(F)(F)F.O=S(=O)([N-]S(=O)(=O)C(F)(F)F)C(F)(F)F`, the MIC (Alcaligenes faecalis) is reported as greater than 100 µM, the MIC (Listeria seeligeri) is reported as greater than 100 µM and the MIC (Bacillus thuringiensis) is reported as greater than 100 µM. For the same compound, the MIC (Escherichia coli [1]) was greater than 100 µM and the EC50 [2] was “Not Active”.

With `CCCCCCCC[n+]1ccn(Cc2cc3ccccc3c(-c3c(O)c(Cn4cc[n+](CCCCCCCC)c4)cc4ccccc34)c2O)c1.O=S(=O)([N-]S(=O)(=O)C(F)(F)F)C(F)(F)F.O=S(=O)([N-]S(=O)(=O)C(F)(F)F)C(F)(F)F` the hemolysis at 24 h, up to 4 µM [3] was less than 15%, the MIC (Alcaligenes faecalis) was greater than 100 µM and the Activity (Escherichia coli [4]) was “inactive”. The IC50 (HEK-293T) was 11.7 µM, the Activity (Escherichia coli [5]) was “Active” and the Activity (Escherichia coli [6]) was “Active”. The MIC (Listeria seeligeri) was 3 µM, the Activity (Escherichia coli [7]) was “inactive” and the Activity (Escherichia coli [8]) was “Active”. It also gave an MIC (Bacillus thuringiensis) of 4 µM, an MIC (Escherichia coli [1]) greater than 100 µM and an Activity [9] of 68%. For the same compound, the EC50 [2] was 4.62 %molar and the hemolysis at 1 h [10] was less than 10%.

`CCCCCCCCCCCC[n+]1ccn(Cc2cc3ccccc3c(-c3c(O)c(Cn4cc[n+](CCCCCCCCCCCC)c4)cc4ccccc34)c2O)c1.O=S(=O)([N-]S(=O)(=O)C(F)(F)F)C(F)(F)F.O=S(=O)([N-]S(=O)(=O)C(F)(F)F)C(F)(F)F` showed an MIC (Alcaligenes faecalis) greater than 100 µM, an IC50 (HEK-293T) of 9.2 µM and an MIC (Listeria seeligeri) of 25 µM. For the same compound, the MIC (Bacillus thuringiensis) was 100 µM, the MIC (Escherichia coli [1]) was greater than 100 µM and the EC50 [2] was 9.3 %molar. It also gave a hemolysis at 1 h [10] of less than 10%.

In the case of `CCCC[n+]1ccn(Cc2cc3ccccc3c(-c3c(O)c(Cn4cc[n+](CCCC)c4)cc4ccccc34)c2O)c1.O=S(=O)([N-]S(=O)(=O)C(F)(F)F)C(F)(F)F.O=S(=O)([N-]S(=O)(=O)C(F)(F)F)C(F)(F)F`, the MIC (Alcaligenes faecalis) is reported as greater than 100 µM, the Activity (Escherichia coli [4]) is reported as “inactive” and the IC50 (HEK-293T) is reported as 23.8 µM. For the same compound, the MIC (Listeria seeligeri) was 30 µM, the Activity (Escherichia coli [7]) was “inactive” and the MIC (Bacillus thuringiensis) was greater than 100 µM. For the same compound, the MIC (Escherichia coli [1]) was greater than 100 µM, the EC50 [2] was “Not Active” and the hemolysis at 1 h [10] was less than 10%.
